Columns and labels:
Liver [1] = experiment: Biodistribution in Sprague-Dawley rat liver at 11 uCi, iv measured 60 mins post compound dose; type: ADME, organism-based; conditions: in vivo, 1 h
Pancreas [2] = experiment: Biodistribution in Sprague-Dawley rat pancreas at 11 uCi, iv measured 2 mins post compound dose; type: ADME, organism-based; conditions: in vivo
Hypothalamus [3] = experiment: Biodistribution in Sprague-Dawley rat hypothalamus at 11 uCi, iv measured 120 mins post compound dose; type: ADME, organism-based; conditions: in vivo, 2 h
Blood [4] = experiment: Biodistribution in Sprague-Dawley rat blood assessed as compound level per organ at 11 uCi, iv measured 2 mins post compound dose; type: ADME, organism-based; conditions: in vivo
Kidney [5] = experiment: Biodistribution in Sprague-Dawley rat kidney at 11 uCi, iv measured 60 mins post compound dose; type: ADME, organism-based; conditions: in vivo, 1 h
Hippocampus [6] = experiment: Biodistribution in Sprague-Dawley rat hippocampus at 11 uCi, iv measured 2 mins post compound dose; type: ADME, organism-based; conditions: in vivo
Liver [7] = experiment: Biodistribution in Sprague-Dawley rat liver at 11 uCi, iv measured 30 mins post compound dose; type: ADME, organism-based; conditions: in vivo, 0.5 h
Kidney [8] = experiment: Biodistribution in Sprague-Dawley rat kidney assessed as compound level per organ at 11 uCi, iv measured 30 mins post compound dose; type: ADME, organism-based; conditions: in vivo, 0.5 h
Hypothalamus [9] = experiment: Biodistribution in Sprague-Dawley rat hypothalamus at 11 uCi, iv measured 2 mins post compound dose; type: ADME, organism-based; conditions: in vivo
Pancreas [10] = experiment: Biodistribution in Sprague-Dawley rat pancreas at 11 uCi, iv measured 120 mins post compound dose; type: ADME, organism-based; conditions: in vivo, 2 h
Nucleic Acid [11] = experiment: Ratio of drug level in cortex to cerebellum in Sprague-Dawley rat at 11 uCi, iv measured 30 mins post compound dose; type: ADME, organism-based; conditions: in vivo, 0.5 h
Kidney [12] = experiment: Biodistribution in Sprague-Dawley rat kidney assessed as compound level per organ at 11 uCi, iv measured 60 mins post compound dose; type: ADME, organism-based; conditions: in vivo, 1 h
Brain [13] = experiment: Biodistribution in Sprague-Dawley rat rest of brain at 11 uCi, iv measured 30 mins post compound dose; type: ADME, organism-based; conditions: in vivo, 0.5 h
Blood [14] = experiment: Biodistribution in Sprague-Dawley rat blood assessed as compound level per organ at 11 uCi, iv measured 30 mins post compound dose; type: ADME, organism-based; conditions: in vivo, 0.5 h
Striatum = experiment: Biodistribution in Sprague-Dawley rat striatum at 11 uCi, iv measured 30 mins post compound dose; type: ADME, organism-based; conditions: in vivo, 0.5 h
Lung [15] = experiment: Biodistribution in Sprague-Dawley rat lung assessed as compound level per organ at 11 uCi, iv measured 30 mins post compound dose; type: ADME, organism-based; conditions: in vivo, 0.5 h
Zone of skin [16] = experiment: Biodistribution in Sprague-Dawley rat skin at 11 uCi, iv measured 2 mins post compound dose; type: ADME, organism-based; conditions: in vivo
Nucleic Acid [17] = experiment: Ratio of drug level in rest of brain region to cerebellum in Sprague-Dawley rat at 11 uCi, iv measured 2 mins post compound dose; type: ADME, organism-based; conditions: in vivo
Spleen [18] = experiment: Biodistribution in Sprague-Dawley rat spleen at 11 uCi, iv measured 120 mins post compound dose; type: ADME, organism-based; conditions: in vivo, 2 h
Heart [19] = experiment: Biodistribution in Sprague-Dawley rat heart assessed as compound level per organ at 11 uCi, iv measured 120 mins post compound dose; type: ADME, organism-based; conditions: in vivo, 2 h
Pancreas [20] = experiment: Biodistribution in Sprague-Dawley rat pancreas assessed as compound level per organ at 11 uCi, iv measured 2 mins post compound dose; type: ADME, organism-based; conditions: in vivo
Muscle tissue [21] = experiment: Biodistribution in Sprague-Dawley rat muscle assessed as compound level per organ at 11 uCi, iv measured 2 mins post compound dose; type: ADME, organism-based; conditions: in vivo
Lung [22] = experiment: Biodistribution in Sprague-Dawley rat lung at 11 uCi, iv measured 30 mins post compound dose; type: ADME, organism-based; conditions: in vivo, 0.5 h
Muscle tissue [23] = experiment: Biodistribution in Sprague-Dawley rat muscle assessed as compound level per organ at 11 uCi, iv measured 30 mins post compound dose; type: ADME, organism-based; conditions: in vivo, 0.5 h
Kidney [24] = experiment: Biodistribution in Sprague-Dawley rat kidney assessed as compound level per organ at 11 uCi, iv measured 120 mins post compound dose; type: ADME, organism-based; conditions: in vivo, 2 h
Muscle tissue [25] = experiment: Biodistribution in Sprague-Dawley rat muscle assessed as compound level per organ at 11 uCi, iv measured 60 mins post compound dose; type: ADME, organism-based; conditions: in vivo, 1 h
Brain [26] = experiment: Biodistribution in Sprague-Dawley rat brain assessed as compound level per organ at 11 uCi, iv measured 2 mins post compound dose; type: ADME, organism-based; conditions: in vivo
Lung [27] = experiment: Biodistribution in Sprague-Dawley rat lung at 11 uCi, iv measured 2 mins post compound dose; type: ADME, organism-based; conditions: in vivo
Spleen [28] = experiment: Biodistribution in Sprague-Dawley rat spleen assessed as compound level per organ at 11 uCi, iv measured 2 mins post compound dose; type: ADME, organism-based; conditions: in vivo
Cortex [29] = experiment: Biodistribution in Sprague-Dawley rat cortex at 11 uCi, iv measured 30 mins post compound dose; type: ADME, organism-based; conditions: in vivo, 0.5 h
Spleen [30] = experiment: Biodistribution in Sprague-Dawley rat spleen at 11 uCi, iv measured 2 mins post compound dose; type: ADME, organism-based; conditions: in vivo
Lung [31] = experiment: Biodistribution in Sprague-Dawley rat lung at 11 uCi, iv measured 120 mins post compound dose; type: ADME, organism-based; conditions: in vivo, 2 h
Bone [32] = experiment: Biodistribution in Sprague-Dawley rat bone at 11 uCi, iv measured 120 mins post compound dose; type: ADME, organism-based, Bone element; conditions: in vivo, 2 h
Nucleic Acid [33] = experiment: Ratio of drug level in hippocampus to cerebellum in Sprague-Dawley rat at 11 uCi, iv measured 2 mins post compound dose; type: ADME, organism-based; conditions: in vivo
Bone [34] = experiment: Biodistribution in Sprague-Dawley rat bone assessed as compound level per organ at 11 uCi, iv measured 2 mins post compound dose; type: ADME, organism-based, Bone element; conditions: in vivo
Bone [35] = experiment: Biodistribution in Sprague-Dawley rat bone assessed as compound level per organ at 11 uCi, iv measured 60 mins post compound dose; type: ADME, organism-based, Bone element; conditions: in vivo, 1 h
Heart [36] = experiment: Biodistribution in Sprague-Dawley rat heart at 11 uCi, iv measured 60 mins post compound dose; type: ADME, organism-based; conditions: in vivo, 1 h
Liver [37] = experiment: Biodistribution in Sprague-Dawley rat liver assessed as compound level per organ at 11 uCi, iv measured 120 mins post compound dose; type: ADME, organism-based; conditions: in vivo, 2 h
Zone of skin [38] = experiment: Biodistribution in Sprague-Dawley rat skin assessed as compound level per organ at 11 uCi, iv measured 60 mins post compound dose; type: ADME, organism-based; conditions: in vivo, 1 h
Hippocampus [39] = experiment: Biodistribution in Sprague-Dawley rat hippocampus at 11 uCi, iv measured 120 mins post compound dose; type: ADME, organism-based; conditions: in vivo, 2 h
Nucleic Acid [40] = experiment: Ratio of drug level in hippocampus to cerebellum in Sprague-Dawley rat at 11 uCi, iv measured 120 mins post compound dose; type: ADME, organism-based; conditions: in vivo, 2 h
Nucleic Acid [41] = experiment: Ratio of drug level in hypothalamus to cerebellum in Sprague-Dawley rat at 11 uCi, iv measured 120 mins post compound dose; type: ADME, organism-based; conditions: in vivo, 2 h
Heart [42] = experiment: Biodistribution in Sprague-Dawley rat heart assessed as compound level per organ at 11 uCi, iv measured 60 mins post compound dose; type: ADME, organism-based; conditions: in vivo, 1 h
Zone of skin [43] = experiment: Biodistribution in Sprague-Dawley rat skin at 11 uCi, iv measured 120 mins post compound dose; type: ADME, organism-based; conditions: in vivo, 2 h
Muscle tissue [44] = experiment: Biodistribution in Sprague-Dawley rat muscle assessed as compound level per organ at 11 uCi, iv measured 120 mins post compound dose; type: ADME, organism-based; conditions: in vivo, 2 h
Spleen [45] = experiment: Biodistribution in Sprague-Dawley rat spleen assessed as compound level per organ at 11 uCi, iv measured 60 mins post compound dose; type: ADME, organism-based; conditions: in vivo, 1 h
Bone [46] = experiment: Biodistribution in Sprague-Dawley rat bone assessed as compound level per organ at 11 uCi, iv measured 30 mins post compound dose; type: ADME, organism-based, Bone element; conditions: in vivo, 0.5 h
Hypothalamus [47] = experiment: Biodistribution in Sprague-Dawley rat hypothalamus at 11 uCi, iv measured 60 mins post compound dose; type: ADME, organism-based; conditions: in vivo, 1 h
Cortex [48] = experiment: Biodistribution in Sprague-Dawley rat cortex at 11 uCi, iv measured 120 mins post compound dose; type: ADME, organism-based; conditions: in vivo, 2 h
Lung [49] = experiment: Biodistribution in Sprague-Dawley rat lung at 11 uCi, iv measured 60 mins post compound dose; type: ADME, organism-based; conditions: in vivo, 1 h
Hippocampus [50] = experiment: Biodistribution in Sprague-Dawley rat hippocampus at 11 uCi, iv measured 30 mins post compound dose; type: ADME, organism-based; conditions: in vivo, 0.5 h

Drug uptake (Liver [1]): 0.48 % ID/g | Drug uptake (Pancreas [2]): 1.52 % ID/g | Drug uptake (Hypothalamus [3]): 0.1 % ID/g | Drug uptake (Blood [4]): 6.43 %ID | Drug uptake (Kidney [5]): 0.72 % ID/g | Drug uptake (Hippocampus [6]): 1.28 % ID/g | Drug uptake (Liver [7]): 1.28 % ID/g | Drug uptake (Kidney [8]): 2.66 %ID | Drug uptake (Hypothalamus [9]): 1.54 % ID/g | Drug uptake (Pancreas [10]): 0.16 % ID/g | Ratio (Nucleic Acid [11]): 0.82 | Drug uptake (Kidney [12]): 1.44 %ID | Drug uptake (Brain [13]): 0.55 % ID/g | Drug uptake (Blood [14]): 5.07 %ID | Drug uptake (Striatum): 0.78 % ID/g | Drug uptake (Lung [15]): 1.5 %ID | Drug uptake (Zone of skin [16]): 0.28 % ID/g | Ratio (Nucleic Acid [17]): 0.75 | Drug uptake (Spleen [18]): 0.12 % ID/g | Drug uptake (Heart [19]): 0.12 %ID | Drug uptake (Pancreas [20]): 0.6 %ID | Drug uptake (Muscle tissue [21]): 21.9 %ID | Drug uptake (Lung [22]): 0.77 % ID/g | Drug uptake (Muscle tissue [23]): 17.1 %ID | Drug uptake (Kidney [24]): 1.06 %ID | Drug uptake (Muscle tissue [25]): 11 %ID | Drug uptake (Brain [26]): 2.52 %ID | Drug uptake (Lung [27]): 3.23 % ID/g | Drug uptake (Spleen [28]): 1.04 %ID | Drug uptake (Cortex [29]): 0.21 % ID/g | Drug uptake (Spleen [30]): 1.61 % ID/g | Drug uptake (Lung [31]): 0.27 % ID/g | Drug uptake (Bone [32]): 0.16 % ID/g | Ratio (Nucleic Acid [33]): 0.85 | Drug uptake (Bone [34]): 0.03 %ID | Drug uptake (Bone [35]): 0.01 %ID | Drug uptake (Heart [36]): 0.17 % ID/g | Drug uptake (Liver [37]): 2.69 %ID | Drug uptake (Zone of skin [38]): 6.4 %ID | Drug uptake (Hippocampus [39]): 0.08 % ID/g | Ratio (Nucleic Acid [40]): 1.5 | Ratio (Nucleic Acid [41]): 1.93 | Drug uptake (Heart [42]): 0.15 %ID | Drug uptake (Zone of skin [43]): 0.13 % ID/g | Drug uptake (Muscle tissue [44]): 5.45 %ID | Drug uptake (Spleen [45]): 0.14 %ID | Drug uptake (Bone [46]): 0.02 %ID | Drug uptake (Hypothalamus [47]): 0.32 % ID/g | Drug uptake (Cortex [48]): 0.06 % ID/g | Drug uptake (Lung [49]): 0.42 % ID/g | Drug uptake (Hippocampus [50]): 0.66 % ID/g
SMILES: CN(C)Cc1cc([125I])ccc1Sc1ccccc1CO

— ChEMBL document CHEMBL2311510, “A new single-photon emission computed tomography (SPECT) imaging agent for serotonin transporters: [(125)I]Flip-IDAM, (2-((2-((dimethylamino)methyl)-4-iodophenyl)thio)phenyl)methanol” (Bioorg Med Chem Lett, 2013)
